Paper PMC11292626, “5-Fluoroindole Reduces the Bacterial Burden in a Murine Model of Mycobacterium tuberculosis Infection” (ACS Omega, 2024)
Read-outs that look alike come from different tables or passages of the source. Marks after values point to notes of the source that are not given here.

Columns and labels:
[1] = tested on: Mycobacterium tuberculosis H37Rv Strain; test: MIC by resazurin reduction microplate assay (REMA), H37Rv; assay type: cell-based; details: Mtb H37Rv; for MIC: REMA
[2] = Aqueous solubility at different pHs; assay type: physicochemical; details: thermodynamic from solid, 25 °C for 4 h
Method: The compound was weighed (1 mg) and solubilized in phosphate-buffered saline (PBS, pH 7.4), HCl 0.1 M (pH 1.2), and NH4HCO3 0.1 M (pH 9.2) to a final concentration of 1 mg/mL. The solutions were kept under stirring (250 rpm) for 4h at 37 °C. The solutions were filtered ([…] PDVA filter) and analyzed by HPLC. DMSO solution 1 mg/mL was used as the control for 100% soluble.

[3] = In vivo absorption assay: plasma concentration after gavage; details: mice, gavage 400 mg/kg
[4] = Metabolic stability in rat liver microsomes; assay type: in vitro ADME; details: rat
Method: The compound was incubated at 37 °C in the concentration of 20 μM with rat liver microsomal fractions in PBS solution at pH 7.4 solution. As previously described,[31] rat liver microsomal fractions were seeded by centrifugation at 9.000 × g. To the supernatant containing the postmithocondrial with cytosolic and membrane-bound enzymes, 4 μM 5-FI was added and incubated at 37 °C. The interaction between the compound in the incubation mixture and the enzyme containing NADPH at 1 mg/mL concentration was measured by HPLC-MS/MS technique to determine the in vitro compound consumption by the microsomal fractions at 0, 5, 15, and 30 min reaction (incubation) time. The intrinsic compound clearance was taken as the half-life, and the disappearance was compared with the positive control, verapamil(2 μM).

[5] = Chemical stability at pH 1.2, 7.4 and 9.1; assay type: physicochemical; details: 37 °C for 24 h
Method: The compounds to be tested were prepared in a 100 μM solution and incubated at 37 °C for 24 h in three solutions representing the physiologically relevant pHs to drug administration: pH 1.2 (stomach), pH 7.4 (plasma), and pH 9.2 (intestinal tissue). The compounds were quantified by HPLC-MS/MS. The chemical stability experiments were carried out in triplicates to ensure reproducibility. The results were presented as percentage, comparing the signal at time zero of the assay, considering this measure 100%, with measurements after the incubation time. Alprenolol was used as the analytical control (data not shown). The results were presented as the percentage, comparing the signal at time zero of the assay (100%) with the signal produced by concentrations after the incubation period.

Mtb H37Rv strain = test: In vivo model of TB infection in mice; details: for lungs mean log10 CFU/mL ± SD / spleen weight mean g ± SD: gavage, single daily dose, 15 administrations; for toxicity in mice (in words): infected mice, up to 21 days
[6] = Chemical stability in H2O at 37 °C, open and closed system (volatility assay)
[7] = tested on: tryptophan transport system of Mtb H37Rv strain; details: tryptophan transport system of Mtb H37Rv strain ref 27; read-out: Michaelis–Menten constant (KM); cited from earlier work
[8] = Mycobacterium tuberculosis, H37RV, most frequent value of three independent assays
[9] = most frequent value of three independent assays

N[C@@H](Cc1c[nH]c2ccc(F)cc12)C(=O)O [5-fluorotryptophan, reference compound]
MIC ([1]; Mycobacterium tuberculosis, H37RV): > 20 µg/mL
MIC [1, 8]: > 90 µM

Clc1ccc2[nH]ccc2c1 [Compound 2, 5-chloroindole]
MIC [1, 9]: >263.9 µM
MIC [1, 8]: > 264 µM

Brc1ccc2[nH]ccc2c1 [Compound 3, 5-bromoindole]
MIC [1, 9]: >204.0 µM
MIC [1, 8]: > 204 µM

N#Cc1ccc2[nH]ccc2c1 [Compound 4]
MIC [1, 8]: > 281 µM

O=[N+]([O-])c1ccc2[nH]ccc2c1 [Compound 5]
MIC [1, 8]: > 247 µM

Oc1ccc2[nH]ccc2c1 [Compound 6]
MIC [1, 8]: > 300 µM

COc1ccc2[nH]ccc2c1 [Compound 7]
MIC [1, 8]: > 272 µM

Fc1cccc2[nH]ccc12 [Compound 8]
reduction of activity compared to 5-FI (MIC ratio) [1]: approximately 4 fold
MIC [1, 8]: 18.5 µM

Fc1ccc2cc[nH]c2c1 [Compound 9]
reduction of activity compared to 5-FI (MIC ratio) [1]: more than 15 fold
MIC [1, 8]: 74 µM

Fc1cccc2cc[nH]c12 [Compound 10]
reduction of activity compared to 5-FI (MIC ratio) [1]: > 31 fold
MIC [1, 8]: 148 µM

Cl.Fc1ccc2[nH]ccc2c1 [Compound 11, 5-fluoroindole hydrochloride]
MIC [1, 9]: 29.1 µM
solubility at 4 h ([2]; pH 1.2, simulated gastric fluid, 0.1 M HCl, read-out: aqueous solubility pH 1.2): 2.3 µM
solubility at 4 h ([2]; pH 9.1, aqueous buffer, 0.1 M NH4HCO3, read-out: aqueous solubility pH 9.1): 1110 µM
solubility at 4 h ([2]; phosphate-buffered saline, pH 7.4, aqueous buffer, PBS, read-out: aqueous solubility pH 7.4): 600 µM
plasma concentration, mean ± SD ([3]; 15 min): 32.6 ± 14.7 µM
plasma concentration, mean ± SD ([3]; 30 min): 82.3 ± 35.05 µM
plasma concentrations (range) ([3]; joint range over 5-FI and 5-FI.HCl, 15 and 30 min, 400 mg/kg): 32.6 to 82.3 µM
CLint scaled ([4]; pH 7.4, read-out: metabolic stability Clint (intrinsic clearance)): 48 mL/min/kg
half-life ([4]; pH 7.4, read-out: metabolic stability t1/2 (half-life)): 12 min
chemical stability pH 1.2 ([5]; 0.1 M HCl): 100%
chemical stability pH 9.1 ([5]; 0.1 M NH4HCO3): 90.5%
chemical stability pH 7.4 ([5]; PBS): 80.3%
chemical stability at all pH values tested ([5]; pH 1.2, 7.4, 9.1): > 80%
lungs mean log10 CFU/mL ± SD (Mtb H37Rv strain; 10 μmol/kg): 5.80 ± 0.20 log10 CFU/mL
spleen weight mean g ± SD (Mtb H37Rv strain; 10 μmol/kg): 0.58 ± 0.19 g
lungs mean log10 CFU/mL ± SD (Mtb H37Rv strain; 30 μmol/kg): 6.21 ± 0.32 log10 CFU/mL
spleen weight mean g ± SD (Mtb H37Rv strain; 30 μmol/kg): 0.55 ± 0.23 g
lungs mean log10 CFU/mL ± SD (Mtb H37Rv strain; 100 μmol/kg): 5.86 ± 0.67 log10 CFU/mL
spleen weight mean g ± SD (Mtb H37Rv strain; 100 μmol/kg): 0.62 ± 0.35 g
number of CFUs in the lungs compared to the EC (early control) group (in words) (Mtb H37Rv strain; 200 μmol/kg): significantly reduced
reduction of mycobacterial load in the lungs compared to vehicle group (in words) (Mtb H37Rv strain; 200 μmol/kg): significantly reduce
lungs mean log10 CFU/mL ± SD (Mtb H37Rv strain; 200 μmol/kg): 3.68 ± 0.45***^, ### log10 CFU/mL
spleen weight mean g ± SD (Mtb H37Rv strain; 200 μmol/kg): 0.28 ± 0.06 g
reduction of CFUs in the lungs compared to vehicle group (in words) (Mtb H37Rv strain; 10, 30 and 100 μmol/kg): not able to reduce
toxicity in mice (in words) (Mtb H37Rv strain; 200 μmol/kg, listed as 5-FI.HCL): no evidence of a toxic effect
toxicity in mice (in words) (Mtb H37Rv strain; 200 μmol/kg, listed as 5-FI.HCl): no toxicity
chemical stability, closed system ([6]; 0 h): 100 ± 0.0%
chemical stability, open system ([6]; 0 h): 100 ± 0.0%
chemical stability, closed system ([6]; 1 h): 95.3 ± 0.1%
chemical stability, open system ([6]; 1 h): 97.6 ± 0.0%
chemical stability, closed system ([6]; 2 h): 95.0 ± 0.2%
chemical stability, open system ([6]; 2 h): 98.0 ± 0.1%
chemical stability, closed system ([6]; 4 h): 104.6 ± 0.2%
chemical stability, open system ([6]; 4 h): 100.3 ± 0.5%
chemical stability, closed system ([6]; 6 h): 97.9 ± 0.1%
chemical stability, open system ([6]; 6 h): 103.9 ± 0.1%
chemical stability, closed system ([6]; 24 h): 110.8 ± 0.2%
chemical stability, open system ([6]; 24 h): 113.5 ± 0.1%
chemical stability, closed system ([6]; 48 h): 124.1 ± 0.1%
chemical stability, open system ([6]; 48 h): 114.3 ± 0.0%

NNC(=O)c1ccncc1 [INH, isoniazid, reference compound]
MIC [1, 8]: 2.3 µM
lungs mean log10 CFU/mL ± SD (Mtb H37Rv strain; 150 μmol/kg): 2.43 ± 0.40***^, ### log10 CFU/mL
spleen weight mean g ± SD (Mtb H37Rv strain; 150 μmol/kg): 0.23 ± 0.04 g

CO[C@H]1/C=C/O[C@@]2(C)Oc3c(C)c(O)c4c(O)c(c(/C=N/N5CCN(C)CC5)c(O)c4c3C2=O)NC(=O)/C(C)=C\C=C\[C@H](C)[C@H](O)[C@@H](C)[C@@H](O)[C@@H](C)[C@H](OC(C)=O)[C@@H]1C [RIF, rifampin, reference compound]
MIC [1, 8]: 0.09 µM

N[C@@H](Cc1c[nH]c2ccccc12)C(=O)O [tryptophan, L-tryptophan]
Km [7]: 1250 µM
